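Cells were grown in 96-well plates and exposed to each compound for 48 hours at five concentrations; endpoints were interpolated linearly between bracketing concentrations, or set to the highest concentration if not reached. Here, GI50 denotes the concentration required for 50% inhibition of growth.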 Activity calls are given as the source filed them. No stated cut-off is given here; in the data, active = GI50 up to about 1.1 µM and inactive = higher.
Tests used:
Test in all cases: growth of human tumour cells (NCI), 48 h
[1] = system: 786-0
[2] = system: A498
[3] = system: ACHN
[4] = system: CCRF-CEM
[5] = system: COLO 205
[6] = system: HCT-116
[7] = system: HL-60
[8] = system: HOP-62
[9] = system: HOP-92
[10] = system: HT-29
[11] = system: IGROV-1
[12] = system: K562
[13] = system: KM-20L2
[14] = system: KM12
[15] = system: LXFL 529
[16] = system: M14
[17] = system: M19-MEL
[18] = system: MOLT-4
[19] = system: Malme-3M
[20] = system: NCI-H23
[21] = system: NCI-H460
[22] = system: NCI-H522
[23] = system: OVCAR-4
[24] = system: OVCAR-5
[25] = system: RPMI-8226
[26] = system: RXF 393
[27] = system: SF-268
[28] = system: SF-295
[29] = system: SF-539
[30] = system: SK-MEL-28
[31] = system: SK-MEL-2
[32] = system: SK-OV-3
[33] = system: SNB-19
[34] = system: SNB-75
[35] = system: SNB-78
[36] = system: SR
[37] = system: U-251
[38] = system: UACC-257
[39] = system: UACC-62
[40] = system: UO-31
[41] = system: A549
[42] = system: CAKI-1
[43] = system: DLD-1
[44] = system: DMS-114
[45] = system: DMS-273
[46] = system: HCT-15
[47] = system: HOP-18
[48] = system: LOX IMVI
[49] = system: NCI-H226
[50] = system: OVCAR-8
[51] = system: SK-MEL-5
[52] = system: SN12C
[53] = system: SW-620
[54] = system: TK-10
[55] = system: BT-549
[56] = system: DU-145
[57] = system: EKVX
[58] = system: HCC 2998
[59] = system: Hs-578T
[60] = system: MCF7
[61] = system: MDA-MB-231
[62] = system: MDA-MB-435
[63] = system: MDA-N
[64] = system: NCI/ADR-RES
[65] = system: OVCAR-3
[66] = system: PC-3
[67] = system: T47D

COc1ccc2c(c1)CC[C@@H]1C2CC[C@]2(C)C(=O)N(CCN3CCCCC3)C(=O)CC12 (stereo not given in full)
GI50 [1]: > 100 µM (inactive) | GI50 [2]: 36.4 µM (inactive) | GI50 [3]: > 100 µM (inactive) | GI50 [4]: 75.5 µM (inactive) | GI50 [5]: > 100 µM (inactive) | GI50 [6]: > 100 µM (inactive) | GI50 [7]: 21.6 µM (inactive) | GI50 [8]: > 100 µM (inactive) | GI50 [9]: 44.5 µM (inactive) | GI50 [10]: 51.5 µM (inactive) | GI50 [11]: > 100 µM (inactive) | GI50 [12]: 58.1 µM (inactive) | GI50 [13]: 47.6 µM (inactive) | GI50 [14]: > 100 µM (inactive) | GI50 [15]: > 100 µM (inactive) | GI50 [16]: 21.3 µM (inactive) | GI50 [17]: 35.8 µM (inactive) | GI50 [18]: > 10 µM (inactive) | GI50 [19]: 57.3 µM (inactive) | GI50 [20]: > 100 µM (inactive) | GI50 [21]: > 100 µM (inactive) | GI50 [22]: 78.9 µM (inactive) | GI50 [23]: > 100 µM (inactive) | GI50 [24]: > 100 µM (inactive) | GI50 [25]: 74.5 µM (inactive) | GI50 [26]: 31.9 µM (inactive) | GI50 [27]: > 100 µM (inactive) | GI50 [28]: > 100 µM (inactive) | GI50 [29]: > 100 µM (inactive) | GI50 [30]: 34.8 µM (inactive) | GI50 [31]: 60.3 µM (inactive) | GI50 [32]: > 100 µM (inactive) | GI50 [33]: > 100 µM (inactive) | GI50 [34]: 58.5 µM (inactive) | GI50 [35]: > 100 µM (inactive) | GI50 [36]: 75.3 µM (inactive) | GI50 [37]: > 100 µM (inactive) | GI50 [38]: 44.3 µM (inactive) | GI50 [39]: 21.2 µM (inactive) | GI50 [40]: 83.2 µM (inactive)

COc1ccc(C2S/C(=C\c3ccc([N+](=O)[O-])cc3)C(=O)N2NC(=O)Cc2ccccc2)cc1 (stereo not given)
GI50 [1]: > 100 µM (inactive) | GI50 [2]: > 100 µM (inactive) | GI50 [41]: > 100 µM (inactive) | GI50 [3]: > 100 µM (inactive) | GI50 [42]: > 100 µM (inactive) | GI50 [4]: 82.8 µM (inactive) | GI50 [5]: > 100 µM (inactive) | GI50 [43]: > 100 µM (inactive) | GI50 [44]: 45.8 µM (inactive) | GI50 [45]: > 100 µM (inactive) | GI50 [6]: 66.4 µM (inactive) | GI50 [46]: 79.8 µM | GI50 [7]: 92.9 µM (inactive) | GI50 [47]: > 100 µM (inactive) | GI50 [8]: > 100 µM (inactive) | GI50 [9]: > 100 µM (inactive) | GI50 [10]: > 100 µM (inactive) | GI50 [11]: > 100 µM (inactive) | GI50 [12]: > 100 µM (inactive) | GI50 [14]: > 100 µM (inactive) | GI50 [48]: > 100 µM (inactive) | GI50 [15]: > 100 µM (inactive) | GI50 [16]: > 100 µM (inactive) | GI50 [17]: > 100 µM (inactive) | GI50 [18]: 87.3 µM (inactive) | GI50 [19]: > 100 µM (inactive) | GI50 [49]: > 100 µM (inactive) | GI50 [20]: > 100 µM (inactive) | GI50 [21]: > 100 µM (inactive) | GI50 [22]: > 100 µM (inactive) | GI50 [23]: > 100 µM (inactive) | GI50 [24]: > 100 µM (inactive) | GI50 [50]: > 100 µM (inactive) | GI50 [25]: > 100 µM (inactive) | GI50 [26]: 25.6 µM (inactive) | GI50 [27]: > 100 µM (inactive) | GI50 [28]: > 100 µM (inactive) | GI50 [29]: > 100 µM (inactive) | GI50 [30]: > 100 µM (inactive) | GI50 [31]: > 100 µM (inactive) | GI50 [51]: > 100 µM (inactive) | GI50 [32]: > 100 µM (inactive) | GI50 [52]: > 100 µM (inactive) | GI50 [34]: 53.8 µM (inactive) | GI50 [36]: > 100 µM (inactive) | GI50 [53]: > 100 µM (inactive) | GI50 [54]: > 100 µM (inactive) | GI50 [37]: 79.3 µM (inactive) | GI50 [38]: 87.5 µM (inactive) | GI50 [39]: 85.9 µM (inactive) | GI50 [40]: > 100 µM (inactive)

NC(=O)c1ccc2c(c1)S(=O)(=O)c1ccccc1C2=O
GI50 [1]: 64.6 µM (inactive) | GI50 [2]: > 100 µM (inactive) | GI50 [41]: > 100 µM (inactive) | GI50 [3]: > 100 µM (inactive) | GI50 [55]: > 100 µM (inactive) | GI50 [42]: > 100 µM (inactive) | GI50 [4]: > 100 µM (inactive) | GI50 [5]: > 100 µM (inactive) | GI50 [56]: > 100 µM (inactive) | GI50 [57]: 10 µM (inactive) | GI50 [58]: > 100 µM (inactive) | GI50 [6]: > 100 µM (inactive) | GI50 [46]: > 100 µM | GI50 [7]: > 100 µM (inactive) | GI50 [8]: 45 µM (inactive) | GI50 [9]: 63.2 µM (inactive) | GI50 [10]: > 100 µM (inactive) | GI50 [59]: 58.6 µM (inactive) | GI50 [11]: > 100 µM (inactive) | GI50 [12]: > 100 µM (inactive) | GI50 [14]: > 100 µM (inactive) | GI50 [48]: > 100 µM (inactive) | GI50 [16]: > 100 µM (inactive) | GI50 [60]: > 100 µM (inactive) | GI50 [61]: 65.2 µM (inactive) | GI50 [62]: > 100 µM (inactive) | GI50 [63]: > 100 µM (inactive) | GI50 [18]: > 100 µM (inactive) | GI50 [19]: > 100 µM (inactive) | GI50 [49]: > 100 µM (inactive) | GI50 [20]: > 100 µM (inactive) | GI50 [21]: > 100 µM (inactive) | GI50 [22]: > 100 µM (inactive) | GI50 [64]: > 100 µM (inactive) | GI50 [65]: > 100 µM (inactive) | GI50 [23]: > 100 µM (inactive) | GI50 [24]: > 100 µM (inactive) | GI50 [50]: 33.1 µM (inactive) | GI50 [66]: > 100 µM (inactive) | GI50 [25]: > 100 µM (inactive) | GI50 [26]: > 100 µM (inactive) | GI50 [27]: 35.9 µM (inactive) | GI50 [28]: 57.8 µM (inactive) | GI50 [29]: 46.6 µM (inactive) | GI50 [30]: > 100 µM (inactive) | GI50 [31]: > 100 µM (inactive) | GI50 [51]: > 100 µM (inactive) | GI50 [32]: 75 µM (inactive) | GI50 [52]: > 100 µM (inactive) | GI50 [33]: > 100 µM (inactive) | GI50 [34]: 46.8 µM (inactive) | GI50 [36]: > 100 µM (inactive) | GI50 [53]: > 100 µM (inactive) | GI50 [67]: > 100 µM (inactive) | GI50 [54]: > 100 µM (inactive) | GI50 [37]: 73.3 µM (inactive) | GI50 [38]: > 100 µM (inactive) | GI50 [39]: > 100 µM (inactive) | GI50 [40]: > 100 µM (inactive)

Reference: ChEMBL document CHEMBL1201862, “PubChem BioAssay data set” (2004)
